Source: patent US20240335431A1, “1-H-PYRROLO[2,3-c]PYRIDINE COMPOUNDS” (Acerta Pharma B.V., priority 2023, published 2024)
Where two headings read alike, the source gives them in different places.

Assays:
MV4;11 cells = test: Proliferation assay, MV4;11 (CellTiter-Glo, 7 days); assay type: cell-based, human; conditions: read-out: MV-4-11 IC50
Procedure, shortened: (§1)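 Cells were seeded at line-specific low densities for linear growth, exposed to 3.16-fold serial compound dilutions at 0.1% DMSO, and incubated 7 days at 37 °C, 5% CO2. Viability was read by CellTiter-Glo 2.0 luminescence; IC50 came from one-site fits of % inhibition, normalized between DMSO-treated cells (100%) and a day-0 plate (0%).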

HEL cells = test: Proliferation assay, HEL control cell line (CellTiter-Glo, 7 days); assay type: cell-based, human
Procedure, shortened: as §1

[1] = Caco-2 cell monolayers intrinsic permeation assay in the presence of efflux inhibitors; assay type: in vitro ADME; conditions: Caco-2, with efflux inhibitors
Procedure, shortened: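 Caco-2 monolayers grown 14–18 days on Transwells; compound dosed apically in HBSS with efflux inhibitors (Zosuquidar, Benzbromarone, KO-143), inhibitors also basolateral, 37 °C with shaking. Sampled at 0, 45 and 120 min, analysed by LC/MS/MS; apical-to-basolateral Papp (cm/s) calculated.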

IC50 (MV4;11 cells; Homo sapiens, MV4-11, 168 h)	Papp A→B [1]	IC50 (MV4;11 cells)	Compound	IC50 (HEL cells; Homo sapiens, HEL, 168 h)	IC50 (HEL cells)
25 nM	0.8 ×10⁻⁶ cm/s		CC(C)N(C(=O)c1cc(F)ccc1-n1cc(C(=O)C2CCN(C(=O)[C@H]3NC4CCC3CC4)CC2)c2ccncc21)C(C)C [Example 20, (S)-2-(3-(1-(2-Azabicyclo[2.2.2]octane-3-carbonyl)piperidine-4-carbonyl)-1H-pyrrolo[2,3-c]pyridin-1-yl)-5-fluoro-N,N-diisopropylbenzamide]	> 10000 nM	
44 nM	3.1 ×10⁻⁶ cm/s		C=C1C[C@@H]2CC[C@H]1[C@@H](C(=O)N1CCC(C(=O)c3cn(-c4ccc(F)cc4C(=O)N(C(C)C)C(C)C)c4cnccc34)CC1)N2 [Example 18, 5-Fluoro-N,N-diisopropyl-2-(3-(1-((1S,3S,4R)-5-methylene-2-azabicyclo[2.2.2]-octane-3-carbonyl)piperidine-4-carbonyl)-1H-pyrrolo[2,3-c]pyridin-1-yl)benzamide]	> 10000 nM	
31 nM	0.7 ×10⁻⁶ cm/s		CC(C)c1cnccc1-c1cc(F)ccc1-n1cc(C(=O)C2CN(C(=O)[C@H]3N[C@@H]4CC[C@H]3C4)C2)c2ccncc21.O=CO [Example 11, (1-((1R,3S,4S)-2-Azabicyclo[2.2.1]heptane-3-carbonyl)azetidin-3-yl)(1-(4-fluoro-2-(3-isopropylpyridin-4-yl)phenyl)-1H-pyrrolo[2,3-c]pyridin-3-yl)methanone 1·formic acid]	> 10000 nM	
24 nM	3 ×10⁻⁶ cm/s		CC(C)N(C(=O)c1cc(F)ccc1-n1cc(C(=O)C2CCN(C(=O)[C@H]3NC[C@@H]4CC[C@@H]43)CC2)c2ccncc21)C(C)C (relative stereo) [Example 25, rel-2-(3-(1-((1R,2R,5S)-3-Azabicyclo[3.2.0]heptane-2-carbonyl)piperidine-4-carbonyl)-1H-pyrrolo[2,3-c]pyridin-1-yl)-5-fluoro-N,N-diisopropylbenzamide]	> 10000 nM	
	3.6 ×10⁻⁶ cm/s	13 nM	Cc1c(C(=O)[C@@H]2CCN(C(=O)[C@H]3NC[C@@H]4C[C@@H]43)[C@@H](C)C2)c2ccncc2n1-c1ccc(F)cc1C(=O)N(CC(F)(F)F)C(C)C (single isomer, unassigned) [Example 53-3, 2-(3-((2R*,4S*)-1-((1S,2S,5R)-3-Azabicyclo[3.1.0]hexane-2-carbonyl)-2-methylpiperidine-4-carbonyl)-2-methyl-1H-pyrrolo[2,3-c]pyridin-1-yl)-5-fluoro-N-isopropyl-N-(2,2,2-trifluoroethyl)benzamide]		> 10000 nM
103 nM	0.5 ×10⁻⁶ cm/s		C[C@@H]1CCC[C@H](C)N1C(=O)c1cc(F)ccc1-n1cc(C(=O)C2CCN(C(=O)[C@H]3N[C@@H]4CC[C@H]3C4)CC2)c2ccncc21 [Example 33, (1-((1R,3S,4S)-2-Azabicyclo[2.2.1]heptane-3-carbonyl)piperidin-4-yl)(1-(2-((2R,6S)-2,6-dimethylpiperidine-1-carbonyl)-4-fluorophenyl)-1H-pyrrolo[2,3-c]pyridin-3-yl)methanone]	> 10000 nM	
17 nM	3 ×10⁻⁶ cm/s		CC(C)N(C(=O)c1cc(F)ccc1-n1cc(C(=O)C2CCN(C(=O)[C@H]3N[C@H]4C[C@@H]3[C@@H](F)C4)CC2)c2ccncc21)C(C)C [Example 22, 5-Fluoro-2-(3-(1-((1S,3S,4S,5S)-5-fluoro-2-azabicyclo[2.2.1]heptane-3-carbonyl)piperidine-4-carbonyl)-1H-pyrrolo[2,3-c]pyridin-1-yl)-N,N-diisopropylbenzamide]	> 10000 nM	
53 nM	4.2 ×10⁻⁶ cm/s		CC(C)N(C(=O)c1cc(F)ccc1-n1cc(C(=O)C2CN(C(=O)[C@H]3N[C@@H]4CC[C@H]3C4)C2)c2ccnc(F)c21)C(C)C [Example 15, 2-(3-(1-((1R,3S,4S)-2-Azabicyclo[2.2.1]heptane-3-carbonyl)azetidine-3-carbonyl)-7-fluoro-1H-pyrrolo[2,3-c]pyridin-1-yl)-5-fluoro-N,N-diisopropylbenzamide]	> 10000 nM	
32 nM	0.1 ×10⁻⁶ cm/s		CCN(C(=O)c1cc(F)ccc1-n1cc(C(=O)C2CCN(C(=O)[C@H]3N[C@@H]4CC[C@H]3C4)CC2)c2ccncc21)C(C)C [Example 31, 2-(3-(1-((1R,3S,4S)-2-Azabicyclo[2.2.1]heptane-3-carbonyl)piperidine-4-carbonyl)-1H-pyrrolo[2,3-c]pyridin-1-yl)-N-ethyl-5-fluoro-N-isopropylbenzamide]	> 10000 nM	
34 nM	1.1 ×10⁻⁶ cm/s		CCN(C(=O)c1cc(F)ccc1-n1cc(C(=O)C2CCN(C(=O)[C@H]3NC[C@@H]4C[C@@H]43)CC2)c2ccncc21)C(C)C [Example 28, 2-(3-(1-((1S,2S,5R)-3-Azabicyclo[3.1.0]hexane-2-carbonyl)piperidine-4-carbonyl)-1H-pyrrolo[2,3-c]pyridin-1-yl)-N-ethyl-5-fluoro-N-isopropylbenzamide]	> 10000 nM	
85 nM	1.2 ×10⁻⁶ cm/s		CC(C)N(C(=O)c1cc(F)ccc1-n1cc(C(=O)C2CN(C(=O)[C@H]3N[C@@H]4CC[C@H]3C4)C2)c2ccncc21)C(C)C [Example 5, 2-(3-(1-((1R,3S,4S)-2-Azabicyclo[2.2.1]heptane-3-carbonyl)azetidine-3-carbonyl)-1H-pyrrolo[2,3-c]pyridin-1-yl)-5-fluoro-N,N-diisopropylbenzamide]	> 10000 nM	
34 nM	1 ×10⁻⁶ cm/s		CC(C)c1ncncc1-c1cc(F)ccc1-n1cc(C(=O)C2CCN(C(=O)[C@H]3N[C@@H]4CC[C@H]3C4)CC2)c2ccncc21 [Example 37, (1-((1R,3S,4S)-2-Azabicyclo[2.2.1]heptane-3-carbonyl)piperidin-4-yl)(1-(4-fluoro-2-(4-isopropylpyrimidin-5-yl)phenyl)-1H-pyrrolo[2,3-c]pyridin-3-yl)methanone]	> 10000 nM	
33 nM	1.9 ×10⁻⁶ cm/s		CCN(C(=O)c1cc(F)ccc1-n1c(C)c(C(=O)C2CCN(C(=O)[C@H]3NC[C@@H]4C[C@@H]43)CC2)c2ccncc21)C(C)C [Example 47, 2-(3-(1-((1S,2S,5R)-3-Azabicyclo[3.1.0]hexane-2-carbonyl)piperidine-4-carbonyl)-2-methyl-1H-pyrrolo[2,3-c]pyridin-1-yl)-N-ethyl-5-fluoro-N-isopropylbenzamide]	> 10000 nM	
24 nM	1.5 ×10⁻⁶ cm/s		CC(C)c1ncccc1-c1cc(F)ccc1-n1cc(C(=O)C2CCN(C(=O)[C@H]3N[C@@H]4CC[C@H]3C4)CC2)c2ccncc21 [Example 38, (1-((1R,3S,4S)-2-Azabicyclo[2.2.1]heptane-3-carbonyl)piperidin-4-yl)(1-(4-fluoro-2-(2-isopropylpyridin-3-yl)phenyl)-1H-pyrrolo[2,3-c]pyridin-3-yl)methanone]	> 10000 nM	
43 nM	1.3 ×10⁻⁶ cm/s		CC(C)c1ncsc1-c1cc(F)ccc1-n1cc(C(=O)C2CCN(C(=O)[C@H]3N[C@@H]4CC[C@H]3C4)CC2)c2ccncc21.O=CO [Example 42, (1-((1R,3S,4S)-2-Azabicyclo[2.2.1]heptane-3-carbonyl)piperidin-4-yl)(1-(4-fluoro-2-(4-isopropylthiazol-5-yl)phenyl)-1H-pyrrolo[2,3-c]pyridin-3-yl)methanone 1·formic acid]	> 10000 nM	

Compound	IC50 (MV4;11 cells; Homo sapiens, MV4-11, 168 h)	Papp A→B [1]	IC50 (MV4;11 cells)	IC50 (HEL cells; Homo sapiens, HEL, 168 h)	IC50 (HEL cells)
Cc1c(C(=O)C2CCN(C(=O)[C@@H]3CCC4(CC4)N3)CC2)c2ccncc2n1-c1ccc(F)cc1C(=O)N1[C@H](C)COC[C@H]1C (single isomer, unassigned) [Example 58-2]	35 nM	5.4 ×10⁻⁶ cm/s			> 10000 nM
